The term IC50 denotes the concentration needed to halve the response being measured.

The target in experiment [1] is T1, GPR6 (Homo sapiens, UniProt P46095).
T1 construct: expressed in transfected cells; host or cells: CHO cells
Description: GPR6 antagonist functional cAMP assay (LANCE Ultra cAMP TR-FRET, CHO cells stably expressing GPR6). It is filed as cell-based. The conditions noted are these: procedure of Example 24. The gist of the method: (§1)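 Suspended cells were plated at 10,000 per well in Krebs-Ringer bicarbonate buffer containing 0.1% BSA and 150 μM Ro 20-1724, then treated with compounds for 45 min at 37 °C. Intracellular cAMP was then quantified by TR-FRET immunoassay.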

In experiment [2] the target is T2, GPR3 (Homo sapiens, UniProt P46089).
T2 construct: expressed in transfected cells; host or cells: CHO cells
T2 sequence (P46089 whole entry, species assumed): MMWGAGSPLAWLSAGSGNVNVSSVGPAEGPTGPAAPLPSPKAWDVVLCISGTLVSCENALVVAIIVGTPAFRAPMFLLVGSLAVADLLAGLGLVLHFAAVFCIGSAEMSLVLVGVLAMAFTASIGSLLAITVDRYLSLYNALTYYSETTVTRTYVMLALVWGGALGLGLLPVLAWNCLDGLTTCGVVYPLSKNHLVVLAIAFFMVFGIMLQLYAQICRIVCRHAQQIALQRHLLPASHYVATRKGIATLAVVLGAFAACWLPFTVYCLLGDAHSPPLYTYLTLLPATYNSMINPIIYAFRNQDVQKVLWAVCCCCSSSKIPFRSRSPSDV
Description: GPR3 antagonist functional cAMP assay (LANCE Ultra cAMP TR-FRET, CHO cells stably expressing GPR3). The experiment is classed as cell-based. The note with it: procedure of Example 24. The gist of the method:
as §1
(In general: Cyclic AMP is a second messenger, typically raised through Gs and lowered through Gi signalling.)

Molecules are shown by their SMILES. Some results are limits rather than exact numbers.

T1 sequence (P46095 whole entry): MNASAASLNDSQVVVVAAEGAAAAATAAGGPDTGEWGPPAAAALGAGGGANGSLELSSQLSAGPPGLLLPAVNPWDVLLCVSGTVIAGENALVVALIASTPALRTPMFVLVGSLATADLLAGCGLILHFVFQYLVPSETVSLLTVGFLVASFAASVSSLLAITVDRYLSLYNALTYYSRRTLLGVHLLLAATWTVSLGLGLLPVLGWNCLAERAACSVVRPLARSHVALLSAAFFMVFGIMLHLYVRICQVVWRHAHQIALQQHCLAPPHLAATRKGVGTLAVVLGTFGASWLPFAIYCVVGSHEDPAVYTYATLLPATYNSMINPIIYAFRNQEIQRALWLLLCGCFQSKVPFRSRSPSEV

Regarding `CCn1cc(-c2nc3cnc(C(O)C(C)(C)O)cc3nc2N2CCN(Cc3ccc(F)cc3F)CC2)cn1` (stereo not shown) [Compound 270, 1-(2-{4-[(2,4-difluorophenyl)methyl]piperazin-1-yl}-3-(1-ethyl-1H-pyrazol-4-yl)pyrido[3,4-b]pyrazin-7-yl)-2-methylpropane-1,2-diol], the half-inhibitory concentration (IC50) lay within 100 to 1000 nM in experiment [1] and 1000 to 30000 nM in experiment [2].
For `CCn1cc(-c2nc3c(nc2N2CCC(Oc4ccc(F)cc4F)CC2)CCN(C(=O)OC)C3)cn1` [Compound 273, methyl 2-[4-(2,4-difluorophenoxy)piperidin-1-yl]-3-(1-ethyl-1H-pyrazol-4-yl)-5H,6H,7H,8H-pyrido[3,4-b]pyrazine-6-carboxylate] the same measures were below 100 nM and 1000 to 30000 nM.
The like results for `CCn1cc(-c2nc3c(nc2N2CCC(Oc4ccc(F)cc4F)CC2)CCN(C#N)C3)cn1` [Compound 274, 2-(4-(2,4-difluorophenoxy)piperidin-1-yl)-3-(1-ethyl-1H-pyrazol-4-yl)-7,8-dihydropyrido[3,4-b]pyrazine-6(5H)-carbonitrile] were, in that order, below 100 nM and 1000 to 30000 nM.
For `CCn1cc(-c2nc3c(nc2N2CCC(Oc4ccc(F)cc4F)CC2)CCN(C(=O)COC)C3)cn1` [Compound 275, 1-{2-[4-(2,4-difluorophenoxy)piperidin-1-yl]-3-(1-ethyl-1H-pyrazol-4-yl)-5H,6H,7H,8H-pyrido[3,4-b]pyrazin-6-yl}-2-methoxyethan-1-one] the same measures were below 100 nM and 100 to 1000 nM.
For the molecule `CCn1cc(-c2nc3c(nc2N2CCC(Oc4ccc(F)cc4F)CC2)CCN(C(=O)C(C)(C)O)C3)cn1` [Compound 276, 1-{2-[4-(2,4-difluorophenoxy)piperidin-1-yl]-3-(1-ethyl-1H-pyrazol-4-yl)-5H,6H,7H,8H-pyrido [3,4-b]pyrazin-6-yl}-2-hydroxy-2-methylpropan-1-one], the results for the 50% inhibitory concentration (IC50) in experiment [1] and in experiment [2] were below 100 nM and 100 to 1000 nM, respectively.
The like results for `Cn1cc(-c2nc3cnc(N)cc3nc2N2CCC(Oc3ccc(F)cc3F)CC2)cn1` [Compound 277, 2-[4-(2,4-difluorophenoxy)piperidin-1-yl]-3-(1-methyl-1H-pyrazol-4-yl)pyrido[3,4-b]pyrazin-7-amine] were, in that order, 100 to 1000 nM and 1000 to 30000 nM.
The like results for `CC(=O)OC1CCCN(c2nc3c(nc2-c2cnn(C)c2)CN(Cc2ccccc2)CC3)C1` (stereo not shown) [Compound 278, 1-[6-benzyl-3-(1-methyl-1H-pyrazol-4-yl)-5H,6H,7H,8H-pyrido[3,4-b]pyrazin-2-yl]piperidin-3-yl acetate] were, in that order, 1000 to 30000 nM and 1000 to 30000 nM.
On to `COC1CCC(c2nc3c(nc2N2CCC(Oc4ccc(F)cc4F)CC2)CCN(C(C)=O)C3)C1` (stereo not shown) [Compound 279, 1-{2-[4-(2,4-difluorophenoxy)piperidin-1-yl]-3-(3-methoxycyclopentyl)-5H,6H,7H,8H-pyrido[3,4-b]pyrazin-6-yl}ethan-1-one], for which the half-inhibitory concentration (IC50) in experiment [1] and in experiment [2] was 1000 to 30000 nM throughout.
In the case of `CC(=O)N1CCc2nc(N3CCN(Cc4ccccc4)CC3)c(-c3cnn(C)c3)nc2C1` [Compound 280, 1-[2-(4-benzylpiperazin-1-yl)-3-(1-methyl-1H-pyrazol-4-yl)-5H,6H,7H,8H-pyrido[3,4-b]pyrazin-6-yl]ethan-1-one], the IC50 in experiment [1] and in experiment [2] was 1000 to 30000 nM each time.
As for `CC(=O)N1CCc2nc(N3CCN(Cc4cc(Cl)ccc4Cl)CC3)c(-c3cnn(C)c3)nc2C1` [Compound 281, 1-(2-{4-[(2,5-dichlorophenyl)methyl]piperazin-1-yl}-3-(1-methyl-1H-pyrazol-4-yl)-5H,6H,7H,8H-pyrido[3,4-b]pyrazin-6-yl)ethan-1-one], the IC50 in experiment [1] was below 100 nM; in experiment [2], 1000 to 30000 nM.
For `COc1ccc(C(=O)N2CCN(c3nc4c(nc3-c3cnn(C)c3)CN(C(C)=O)CC4)CC2)cc1F` [Compound 282, 1-{2-[4-(3-fluoro-4-methoxybenzoyl)piperazin-1-yl]-3-(1-methyl-1H-pyrazol-4-yl)-5H,6H,7H,8H-pyrido[3,4-b]pyrazin-6-yl}ethan-1-one], the half-maximal inhibitory concentration (IC50) in experiment [1] and in experiment [2] was at least 30000 nM throughout.
Turning to `COc1ccc(C(=O)N2CCN(c3nc4c(nc3-c3cnn(C)c3)CN(C(C)=O)CC4)CC2)cc1` [Compound 283, 1-{2-[4-(4-methoxybenzoyl)piperazin-1-yl]-3-(1-methyl-1H-pyrazol-4-yl)-5H,6H,7H,8H-pyrido[3,4-b]pyrazin-6-yl}ethan-1-one], the concentration for half-maximal inhibition (IC50) in experiment [1] and in experiment [2] was 1000 to 30000 nM throughout.
Take `COc1ccc(C(=O)N2CCN(c3nc4c(nc3-c3cnn(C)c3)CN(C(C)=O)CC4)CC2)nc1` [Compound 284, 1-{2-[4-(5-methoxypyridine-2-carbonyl)piperazin-1-yl]-3-(1-methyl-1H-pyrazol-4-yl)-5H,6H,7H,8H-pyrido[3,4-b]pyrazin-6-yl}ethan-1-one]: the IC50 in experiment [1] and in experiment [2] was 1000 to 30000 nM each time.
For `CC(=O)N1CCc2nc(N3CCN(C(=O)c4cc(F)cc(F)c4)CC3)c(-c3cnn(C)c3)nc2C1` [Compound 285, 1-{2-[4-(3,5-difluorobenzoyl)piperazin-1-yl]-3-(1-methyl-1H-pyrazol-4-yl)-5H,6H,7H,8H-pyrido[3,4-b]pyrazin-6-yl}ethan-1-one], the IC50 in experiment [1] is at least 30000 nM; in experiment [2] it was 1000 to 30000 nM.
For `CC(=O)N1CCc2nc(N3CCN(C(=O)c4ccc(F)cc4C#N)CC3)c(-c3cnn(C)c3)nc2C1` [Compound 286, 2-{4-[6-acetyl-3-(1-methyl-1H-pyrazol-4-yl)-5H,6H,7H,8H-pyrido[3,4-b]pyrazin-2-yl]piperazine-1-carbonyl}-5-fluorobenzonitrile] the same measures were 1000 to 30000 nM and at least 30000 nM.
For `COc1ccc(C(=O)N2CCN(c3nc4c(nc3-c3cnn(C)c3)CN(C(C)=O)CC4)CC2)c(OC)c1` [Compound 287, 1-{2-[4-(2,4-dimethoxybenzoyl)piperazin-1-yl]-3-(1-methyl-1H-pyrazol-4-yl)-5H,6H,7H,8H-pyrido[3,4-b]pyrazin-6-yl}ethan-1-one] the same measures were at least 30000 nM and at least 30000 nM.
On to `CCn1cc(-c2nc3cnccc3nc2N2CCC(Oc3cc(Cl)ccc3Cl)CC2)cn1` [Compound 288, 4-(2,5-dichlorophenoxy)-1-[3-(1-ethyl-1H-pyrazol-4-yl)pyrido[3,4-b]pyrazin-2-yl]piperidine], for which the concentration for half-maximal inhibition (IC50) is below 100 nM in experiment [1] and 1000 to 30000 nM in experiment [2].
The like results for `Cn1cc(-c2nc3cnc(Cl)cc3nc2N2CCC(Oc3ccc(F)cc3F)CC2)cn1` [Compound 289, 7-chloro-2-(4-(2,4-difluorophenoxy)piperidin-1-yl)-3-(1-methyl-1H-pyrazol-4-yl)pyrido[3,4-b]pyrazine] were, in that order, 1000 to 30000 nM and 1000 to 30000 nM.
The like results for `CCn1cc(-c2nc3c(nc2N2CCC(Oc4ccc(F)cc4F)CC2)CCN(C(=O)C2CCCN2)C3)cn1` (stereo not shown) [Compound 291, 4-(2,4-difluorophenoxy)-1-[3-(1-ethyl-1H-pyrazol-4-yl)-6-(pyrrolidine-2-carbonyl)-5H,6H,7H,8H-pyrido[3,4-b]pyrazin-2-yl]piperidine] were, in that order, below 100 nM and 1000 to 30000 nM.
For the molecule `Cn1cc(-c2nc3cnc(C#N)cc3nc2N2CCC(Oc3ccc(F)cc3F)CC2)cn1` [Compound 293, 2-[4-(2,4-difluorophenoxy)piperidin-1-yl]-3-(1-methyl-1H-pyrazol-4-yl)pyrido[3,4-b]pyrazine-7-carbonitrile], the IC50 in experiment [1] and in experiment [2] was 1000 to 30000 nM each time.

The values are drawn from patent US20260042755A1, “GPR6 INVERSE AGONISTS” (MapLight Therapeutics, Inc., priority 2022, published 2026).
